Assay results published in publication PMC11596957, “Biological Characteristics of a Novel Bibenzyl Synthase (DoBS1) Gene from Dendrobium officinale Catalyzing Dihydroresveratrol Synthesis” (Molecules, 2024).

Molecular target: T1, DoBS1 (bibenzyl synthase) (Dendrobium officinale, UniProt Z9NEY1S5B3)
T1 construct: type III PKS family known as homodimer
T1 sequence (Z9NEY1S5B3 1-390): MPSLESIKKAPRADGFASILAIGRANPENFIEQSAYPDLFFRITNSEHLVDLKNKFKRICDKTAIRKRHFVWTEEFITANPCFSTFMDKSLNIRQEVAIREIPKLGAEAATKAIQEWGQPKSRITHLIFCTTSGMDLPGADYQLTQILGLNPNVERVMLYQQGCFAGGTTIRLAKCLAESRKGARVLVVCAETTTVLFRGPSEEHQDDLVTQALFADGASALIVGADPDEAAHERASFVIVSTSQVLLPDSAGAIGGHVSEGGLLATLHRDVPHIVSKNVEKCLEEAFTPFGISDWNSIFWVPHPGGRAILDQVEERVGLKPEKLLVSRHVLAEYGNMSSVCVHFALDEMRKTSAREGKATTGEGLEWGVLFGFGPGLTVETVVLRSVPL
Experiment: HPLC of dihydroresveratrol formation, Michaelis-Menten fit
Assay type: biochemical
Settings: co-substrate malonyl-CoA (2.5 mM in the described assay), 37 °C, 30 min; text gives the Km 'for DHR' production, Figure 7 legend names p-coumaroyl-CoA as varied substrate; unit printed as mmol
From the text: HPLC of dihydroresveratrol formation, Michaelis-Menten fit on DoBS1 (bibenzyl synthase) | Kinetic analysis of DoBS1 toward p-coumaroyl-CoA

Km: 0.30 ± 0.08 mmol
SMILES: CC(C)(COP(=O)(O)OP(=O)(O)OC[C@H]1O[C@@H](n2cnc3c(N)ncnc32)[C@H](O)[C@@H]1OP(=O)(O)O)[C@@H](O)C(=O)NCCC(=O)NCCSC(=O)/C=C/c1ccc(O)cc1 [p-coumaroyl-CoA]
